From patent US20100129289A1, “COMPOSITIONS AND METHODS FOR THE DETECTION OF VULNERABLE PLAQUE” (THE OHIO STATE UNIVERSITY RESEARCH FOUNDATION, priority 2006, published 2010)
Entries after “also recorded” stand apart in the source; their conditions may differ. Ends that are not written are not given here. * marks the point of attachment. Biotin = O=C1N[C@H]2[C@H](CS[C@H]2CCCCC(=O)*)N1

Assays:
[1] = system: WHHL rabbit aortic tissue (intima); assay: Resected WHHL rabbit aortic tissue peptide binding assay; details: for positive binding / staining on WHHL tissue samples: five to seven tissue samples per peptide; for staining on WHHL tissue, original versus randomized sequence: one experiment on a WHHL rabbit, FIGS. 14 and 15; for staining on WHHL aortic tissue: overall statement across experiments; for staining of corresponding WHHL tissue samples: sections FIG. 10(c) (peptide 4) and FIG. 11(a) (peptide 3); for staining of individual WHHL tissue sections: sections FIG. 10(d) (peptide 4) and FIG. 11(b) (peptide 3)
Description: (§1) Experiments were performed to determine if the synthesized peptides could bind to the intima of the WHHL (diseased) rabbits but not to the NZW (control) rabbits. The following procedure is shown schematically in FIG. 2. The animals were anesthetized, injected with 0.7-1.0 mL heparin, and perfused with 200-300 mL Hanks buffered salt solution containing 1% BSA. A segment of the aorta comprising the aortic arch to the bifurcation of the aorta in the lower abdomen was removed and placed in a buffer solution of Hanks w/1% BSA and 1% protease inhibitor cocktail (Sigma, P8340). The aorta segments were opened longitudinally and sliced into individual pieces approximately 1-2 mm^2 each. These pieces were then placed into tubes containing individual peptides at a concentration of 5 μg/mL in the same buffer solution described above.
(§2) The tissue sections were incubated with individual peptides for 45-60 minutes at room temperature. Samples were washed 3× with PBS followed by incubation with SA-HRP or anti-FLAG-HRP in the same buffer for 45-60 minutes at room temperature. After another 3× washing, the samples were incubated with DAB for 30 minutes in the same buffer. After a final round of washing, tissue samples were imaged with a dissecting microscope and analyzed for the presence of brown staining on the endothelial surface. […] Some tissue sections received no peptide incubation; rather they were exposed only to SA-HRP or anti-FLAG-HRP as a control.

[2] = system: atherosclerotic lesion endothelium of ApoE knockout mice; details: mouse; cited from earlier work
[3] = system: human atherosclerotic lesions; details: cited from earlier work
lipid-loaded HAECs = assay: Lipid-loaded HAEC peptide binding assay; assay type: cell-based, human; details: peptide 1, 5 or 100 μg/mL; SA-HRP or anti-FLAG-HRP with DAB
Description: Human aortic endothelial cells (HAECs) were loaded with acetylated low-density lipoprotein as described herein. Peptide binding assays were performed 24 hours after the third lipid-loading of the cells. Control cells grown in the standard media without added lipid were cultured for the same amount of time as the lipid-loaded HAECs.
The general procedure for the peptide binding assays was conducted as follows (see FIG. 1). Variations on this method will be discussed as well. Both the lipid- and non-lipid-loaded cells were imaged prior to the assays to verify morphological differences between the two conditions of the cells. The media was aspirated and cells were washed 3× with cold wash buffer (PBS w/Ca^2+, […] with 2% FBS), followed by a 5 minute incubation on ice to minimize internalization of peptides. Cold blocking buffer (PBS w/1% BSA) was added to the cells for 15 minutes to prevent nonspecific binding. Peptides were then added to the cells in cold blocking buffer at 1, 5, or 100 μg/mL and incubated for 1 hour on ice. Following incubation, cells were washed 3×, and either streptavidin horseradish peroxidase (SA-HRP) or anti-FLAG horseradish peroxidase (anti-FLAG-HRP) was added to the cells in cold blocking buffer at the recommended concentrations provided by the manufacturers. […]

[4] = system: frozen WHHL aorta tissue sections; assay: Direct staining on frozen WHHL rabbit tissue sections; assay type: binding; details: for staining of frozen WHHL aorta tissue sections: peptide 1 μg/mL, 4 μm sections, FIG. 22
Description: Some of the resected WHHL and NZW aortic arch tissues were frozen and sectioned into 4 μm slices. Binding assays were performed on these frozen sections in a similar manner to that described herein. Sections were thawed and incubated with blocking buffer (Hanks w/1% BSA) for 30 minutes. Individual peptides were added to the slides in blocking buffer at a concentration of 1 μg/mL. After 45 minutes of incubation, the slides were washed and either SA-HRP or anti-FLAG-HRP, depending on the modification of the peptides, was added at the recommended concentration and allowed to incubate for 1 hour. The slides were washed again, and the DAB substrate was added and incubated for 30 minutes while looking for brown color development. After washing away the DAB, the tissue samples were fixed with 10% buffered formalin for 10 minutes followed by counterstaining with hemotoxylin. The slides were then mounted with permount and glass coverslips for imaging. The standard SA-HRP and anti-FLAG-HRP controls were performed for these experiments as well.

[5] = system: NZW rabbit aortic tissue (intima); assay: Resected NZW rabbit aortic tissue peptide binding assay; details: for staining / binding on NZW tissue: peptide 9 at 1× concentration, FIG. 12
Description: as §1, §2

[6] = system: aorta of ApoE knockout mice; assay: ApoE knockout mice in vivo peptide binding assay; parameters: species or system mouse; details: 1 hour circulation, SA-HRP or anti-FLAG-HRP with DAB
Description: In the peptide binding assays, individual peptides are injected into an anesthetized mouse and allowed to circulate in vivo for 1 hour. Note that this is different from the WHHL/NZW binding assays where the aorta is first resected and then incubated with peptide. The animal is then fixed via cardiac perfusion with 4% formaldehyde, and the aorta is removed to test for binding of the peptide. The detection assay is the same assay described herein: either SA-HRP or anti-FLAG-HRP is added to the solution containing the resected tissue, followed by the addition of the DAB substrate, after which the tissue samples are sectioned and imaged.

[7] = system: WHHL rabbit aortic tissue (intima); assay: Resected WHHL rabbit aortic tissue peptide binding assay
[8] = 10× concentration (˜100 μg/mL) versus 1×, FIG. 13

In the case of APHYLKTAPPPN [Peptide 28], the “positive binding / staining on WHHL tissue samples” value (shortened to “positive binding / staining”) ([1]; Exp219 (FIG. 20)) is reported as “some staining”.
For Biotin-PPEEWSPVTHLL [Peptide 3R], the “staining on WHHL tissue, original versus randomized sequence” value [1] was “much less staining compared to the original sequences”.
For Biotin-RNPGYTYHIALG [Peptide 4R], the “staining on WHHL tissue, original versus randomized sequence” value [1] was “much less staining compared to the original sequences”.
In the case of “CAPGPSKSC (cysteine pairing not given here; also: N-terminal biotin or C-terminal FLAG, which one not given here) [Peptide 12]”, the “positive binding / staining” value ([1]; Exp217 (FIG. 19)) is given as “stained”, the “binding to atherosclerotic lesion endothelium of ApoE knockout mice in vivo” value [2] is given as “bound” and the “binding to human atherosclerotic lesions ex vivo” value [3] is given as “bound”.
With CDSIKWPNC [Peptide 23] the “binding to lipid-loaded HAECs (brown staining)” value (lipid-loaded HAECs) was “negative result for binding”.
For CHPASSPQC [Peptide 34], the “positive binding / staining” value ([1]; Exp223 (FIG. 21)) was “some staining”.
For CKQSFEKSC [Peptide 1], the “positive binding / staining” value ([1]; Exp201 (FIG. 18)) was “showed staining on one tissue sample”.
In the case of CKQSPPSMC [Peptide 14], the “positive binding / staining” value ([1]; Exp217 (FIG. 19)) is reported as “stained”.
With CKSDANSHC [Peptide 2] the “positive binding / staining” value ([1]; Exp217 (FIG. 19)) was “stained”.
For “CNHRYMQMC [Peptide 11, reference compound]”, the “positive binding / staining” value ([1]; Exp201 (FIG. 18)) is given as “showed staining on one tissue sample” and the “binding to atherosclerotic lesion endothelium of ApoE knockout mice in vivo” value [2] is given as “shown to bind”.
For CNKNSIPHC [Peptide 20], the “positive binding / staining” value ([1]; Exp201 (FIG. 18)) was “showed staining on one tissue sample”.
For CVMPGLKNC [Peptide 10], the “positive binding / staining” value ([1]; Exp201 (FIG. 18)) was “showed staining on one tissue sample”.
With “ILTHEHTLPKQ-FLAG (ILTHEHTLPKQ-{FLAG}) [Peptide 9R]” the “staining of frozen WHHL aorta tissue sections” value [4] was “no staining; also recorded: no binding”.
In the case of KSLSRHDHIHHH [Peptide 16], the “positive binding / staining” value ([1]; Exp217 (FIG. 19)) is reported as “stained”.
With NADNQMTWRHVL [Peptide 38] the “positive binding / staining” value ([1]; Exp223 (FIG. 21)) was “some staining”.
In the case of NLTSLTQGSAML [Peptide 39], the “positive binding / staining” value ([1]; Exp223 (FIG. 21)) is reported as “some staining”.
With “SIGYPLP [Peptide 13, reference compound]” the “positive binding / staining” value ([1]; Exp217 (FIG. 19)) was “stained”.
With SSLPAPPWPLRG [Peptide 6] the “positive binding / staining” value ([1]; Exp201 (FIG. 18)) was “showed staining on one tissue sample” and the “positive binding / staining” value ([1]; Exp217 (FIG. 19)) was “slight staining”.
In the case of SSSKMQAAHQLP [Peptide 24], the “positive binding / staining” value ([1]; Exp201 (FIG. 18)) is reported as “showed staining on one tissue sample” and the “positive binding / staining” value ([1]; Exp219 (FIG. 20)) is reported as “some staining”.
In the case of TAPHHSTPANVP [Peptide 17], the “binding to lipid-loaded HAECs (brown staining)” value (lipid-loaded HAECs) is reported as “negative result for binding”.
For TDTTMGQVHRHP [Peptide 37], the “positive binding / staining” value ([1]; Exp223 (FIG. 21)) was “some staining”.
With TPLEVHPESLPW [Peptide 3] the “staining on WHHL aortic tissue” value [1] was “above-average reproducible staining”, the “staining of corresponding WHHL tissue samples” value [1] was “very little, if any, brown staining” and the “staining of individual WHHL tissue sections” value [1] was “best staining”. For the same substance, the “staining / binding on NZW tissue” value [5] was “no binding”.
With TQTPIKHHLLKE [Peptide 9] the “binding to regions of plaque, dependence on dose” value ([1]; WHHL aortic tissue) was “dose-dependent manner”, the “location of staining in sectioned WHHL aorta” value ([1]; histological sections, Hoechst stain, 400×, FIG. 16) was “localized to the intimal layer, with no infiltration into the plaque region; also recorded: localized to the intimal layer of the aorta” and the “staining over plaque versus non-plaque regions of WHHL aorta” value ([1]; histological sections, FIG. 17) was “present on intima covering regions of plaque but not over non-plaque regions; also recorded: seen over plaque-rich regions”. The “staining on WHHL tissue, original versus randomized sequence” value [1] was “stronger than the staining seen from peptide 9R”, the “staining on WHHL aortic tissue” value [1] was “consistently shows staining” and the “staining on NZW tissue at 10-fold increased concentration” value [5, 8] was “remains the same as the staining seen with the 1× concentration”. The “staining / binding on NZW tissue” value [5] was “some slight staining; also recorded: light, distinct staining pattern; also recorded: slight background staining”, the “binding to frozen tissue samples” value ([4]; frozen WHHL and NZW tissue) was “showed binding” and the “staining of frozen WHHL aorta tissue sections” value [4] was “strong brown staining on the surface; also recorded: stains the intimal surface”. The “binding to aorta after in vivo circulation of peptide” value [6] was “did not yield positive results”, the “staining on WHHL aortic tissue relative to anti-FLAG-HRP control sections” value ([7]; 1× concentration (˜10 μg/mL), FIGS. 8 and 9, two WHHL rabbits) was “more total staining, and the staining is very distinct” and the “staining on WHHL tissue at 10-fold increased concentration” value [7, 8] was “increases dramatically”.
For TSPQTKDC [Peptide 7], the “positive binding / staining” value ([1]; Exp201 (FIG. 18)) was “showed staining on one tissue sample”, the “positive binding / staining” value ([1]; Exp217 (FIG. 19)) was “slight staining” and the “binding to aorta after in vivo circulation of peptide” value [6] was “did not yield positive results”.
With YITPYAHLRGGN [Peptide 4] the “staining on WHHL aortic tissue” value [1] was “above-average reproducible staining”, the “staining of corresponding WHHL tissue samples” value [1] was “very little, if any, brown staining” and the “staining of individual WHHL tissue sections” value [1] was “good staining”. The “staining / binding on NZW tissue” value [5] was “no binding”.
